Measurements reported in patent US9770461B2, “Tailored glycopolymers as anticoagulant heparin mimetics” (California Institute of Technology, priority 2013, dated 2017).

Key:
Assay type in all cases: biochemical
Factor Xa (FXa) = assay: Chromogenic anti-FXa assay in the presence of antithrombin III; conditions: with ATIII
Experimental: The BIOPHEN Heparin Anti-Xa (2 stages) USP/EP kit (Aniara) was used to determine factor Xa activity. This chromogenic anti-Xa method for measuring homogeneous heparin in purified systems is in compliance with Pharmacopoeias (USP, EP) and FDA guidelines. All reagents were prepared according to manufacturer's instructions and incubated at 37° C. for 15 min. Varying concentrations of heparin (Neoparin) or glycopolymers 1-4 (40 μL) and antithrombin (40 μL) were added to a microcentrifuge tube, mixed, and incubated at 37° C. for 2 min. Factor Xa (40 μL) was added to the solution, incubated at 37° C. for exactly 2 min, and then the factor Xa chromogenic substrate (40 μL) was added. After 2 min, the reaction was quenched with citric acid (20 g/L, 240 μL), and the absorbance was measured at 405 nm. The sample blank was obtained by mixing the reagents in reverse order, and the resulting value was deducted from the absorbance values measured in the assay.
All reagents were prepared according to the manufacturer's instructions and incubated at 37° C. for 15 min. […] Absorbance at 405 nm was measured on a Uvikon XL spectrophotometer. […] The sample blank value was deducted from the absorbance measured for the corresponding assay.

citrated human plasma [1] = assay: Activated partial thromboplastin time (APTT) analysis
Experimental: Plasma/anticoagulant samples were prepared by mixing 300 μL of the heparin standard or glycopolymer (150 μg/mL) in 0.9% saline and 2.7 mL of citrated human plasma. The tube was inverted 3 times to mix the sample thoroughly. Samples were analyzed by the UCLA Clinical & Translational Research Laboratory using a Sysmex® CA-1500 Coagulation Analyzer (Siemens AG, Erlangen, Germany). Clotting time in the absence of an anticoagulant was determined using 0.9% saline solution water (300 μL). Each clotting assay was performed in triplicate.

citrated human plasma [2] = assay: Prothrombin time (PT) analysis; conditions: 300 μL of 150 μg/mL sample in 2.7 mL citrated human plasma
Experimental: Samples were prepared by mixing 300 μL of the heparin standard or glycopolymer (150 μg/mL) in 0.9% saline with 2.7 mL citrated human plasma. The tube was inverted 3 times to mix the sample thoroughly. Samples were analyzed by the UCLA Clinical & Translational Research Laboratory using a Sysmex® CA-1500 Coagulation Analyzer (Siemens AG, Erlangen, Germany). Clotting time in the absence of an anticoagulant was determined using 0.9% saline solution water (300 μL). Each clotting assay was performed in triplicate.

CO[C@H]1O[C@H](COS(=O)(=O)O)[C@@H](O[C@@H]2O[C@@H](C(=O)O)[C@@H](O[C@H]3O[C@H](COS(=O)(=O)O)[C@@H](O[C@@H]4O[C@H](C(=O)O)[C@@H](O[C@H]5O[C@H](COS(=O)(=O)O)[C@@H](O)[C@H](O)[C@H]5NS(=O)(=O)O)[C@H](O)[C@H]4O)[C@H](OS(=O)(=O)O)[C@H]3NS(=O)(=O)O)[C@H](O)[C@H]2OS(=O)(=O)O)[C@H](O)[C@H]1NS(=O)(=O)O [Arixtra]
IC50 (Factor Xa (FXa)): 11 ± 0.1 nM
APTT (citrated human plasma [1]; 300 μL of 150 μg/mL sample in 2.7 mL citrated human plasma): 78.3 ± 0.4 s
effect on APTT (in words) (citrated human plasma [1]; compared to saline control): increased only the APTT
PT (citrated human plasma [2]): 15.1 ± 0.3 s
